Assays:
Settings in all cases: Compound concentration 1.0 uM
[1] = biological target: Tyrosine-protein kinase ABL1 (Homo sapiens) (UniProt P00519); test: activity of Abl(h) at 1.0 µM in the Eurofins Kinase panel
[2] = biological target: Tyrosine-protein kinase receptor UFO (Homo sapiens) (UniProt P30530); test: activity of Axl(h) at 1.0 µM in the Eurofins Kinase panel
[3] = biological target: Calcium/calmodulin-dependent protein kinase type II subunit alpha (Homo sapiens) (UniProt Q9UQM7); test: activity of CaMKIIalpha(h) at 1.0 µM in the Eurofins Kinase panel
[4] = biological target: Calcium/calmodulin-dependent protein kinase type II subunit beta (Homo sapiens) (UniProt Q13554); test: activity of CaMKIIbeta(h) at 1.0 µM in the Eurofins Kinase panel
[5] = biological target: Calcium/calmodulin-dependent protein kinase type 1B (Homo sapiens) (UniProt Q6P2M8); test: activity of CaMKIbeta(h) at 1.0 µM in the Eurofins Kinase panel
Sequence of Calcium/calmodulin-dependent protein kinase type 1B (Homo sapiens) (Q6P2M8 whole entry): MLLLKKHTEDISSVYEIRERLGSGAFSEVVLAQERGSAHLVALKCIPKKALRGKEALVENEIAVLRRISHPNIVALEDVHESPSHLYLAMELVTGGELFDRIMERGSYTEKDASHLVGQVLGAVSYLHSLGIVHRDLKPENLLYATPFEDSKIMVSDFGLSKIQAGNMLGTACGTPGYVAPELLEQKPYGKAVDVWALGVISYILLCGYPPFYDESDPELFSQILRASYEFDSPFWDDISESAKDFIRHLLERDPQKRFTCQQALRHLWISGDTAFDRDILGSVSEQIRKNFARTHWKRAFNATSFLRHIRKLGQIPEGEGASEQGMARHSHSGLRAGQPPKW

[6] = biological target: Cyclin-Y/Cyclin-dependent kinase 16 (Homo sapiens) (UniProt Q00536+Q8ND76); test: activity of CDK16/cyclinY(h) at 1.0 µM in the Eurofins Kinase panel; type: protein-complex assay
[7] = biological target: Cyclin-dependent kinase 2/cyclin E (Homo sapiens) (UniProt P24864+P24941+O96020); test: activity of CDK2/cyclinE(h) at 1.0 µM in the Eurofins Kinase panel; type: protein-complex assay
[8] = biological target: Casein kinase I isoform gamma-2 (Homo sapiens) (UniProt P78368); test: activity of CK1gamma2(h) at 1.0 µM in the Eurofins Kinase panel
[9] = biological target: Dual specificity protein kinase CLK4 (Homo sapiens) (UniProt Q9HAZ1); test: activity of CLK4(h) at 1.0 µM in the Eurofins Kinase panel
Sequence of Dual specificity protein kinase CLK4 (Homo sapiens) (Q9HAZ1 whole entry, looked up): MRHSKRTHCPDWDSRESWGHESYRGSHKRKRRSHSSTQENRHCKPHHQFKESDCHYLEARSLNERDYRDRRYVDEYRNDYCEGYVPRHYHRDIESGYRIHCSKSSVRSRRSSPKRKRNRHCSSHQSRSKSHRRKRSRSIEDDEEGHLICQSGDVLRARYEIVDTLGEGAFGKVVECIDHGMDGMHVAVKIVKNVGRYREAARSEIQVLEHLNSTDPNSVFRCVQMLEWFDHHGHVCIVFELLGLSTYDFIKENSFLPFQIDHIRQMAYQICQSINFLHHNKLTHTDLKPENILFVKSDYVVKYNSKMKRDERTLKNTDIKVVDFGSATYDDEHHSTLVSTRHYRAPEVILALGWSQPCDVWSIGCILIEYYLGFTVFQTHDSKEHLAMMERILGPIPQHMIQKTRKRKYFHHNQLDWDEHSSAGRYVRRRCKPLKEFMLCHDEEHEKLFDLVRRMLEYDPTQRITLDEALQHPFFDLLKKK

[10] = biological target: Ephrin type-B receptor 3 (Homo sapiens) (UniProt P54753); test: activity of EphB3(h) at 1.0 µM in the Eurofins Kinase panel
[11] = biological target: Tyrosine-protein kinase Fes/Fps (Homo sapiens) (UniProt P07332); test: activity of Fes(h) at 1.0 µM in the Eurofins Kinase panel
[12] = biological target: Tyrosine-protein kinase Fgr (Homo sapiens) (UniProt P09769); test: activity of Fgr(h) at 1.0 µM in the Eurofins Kinase panel
Sequence of Tyrosine-protein kinase Fgr (Homo sapiens) (P09769 2-529 limits assumed): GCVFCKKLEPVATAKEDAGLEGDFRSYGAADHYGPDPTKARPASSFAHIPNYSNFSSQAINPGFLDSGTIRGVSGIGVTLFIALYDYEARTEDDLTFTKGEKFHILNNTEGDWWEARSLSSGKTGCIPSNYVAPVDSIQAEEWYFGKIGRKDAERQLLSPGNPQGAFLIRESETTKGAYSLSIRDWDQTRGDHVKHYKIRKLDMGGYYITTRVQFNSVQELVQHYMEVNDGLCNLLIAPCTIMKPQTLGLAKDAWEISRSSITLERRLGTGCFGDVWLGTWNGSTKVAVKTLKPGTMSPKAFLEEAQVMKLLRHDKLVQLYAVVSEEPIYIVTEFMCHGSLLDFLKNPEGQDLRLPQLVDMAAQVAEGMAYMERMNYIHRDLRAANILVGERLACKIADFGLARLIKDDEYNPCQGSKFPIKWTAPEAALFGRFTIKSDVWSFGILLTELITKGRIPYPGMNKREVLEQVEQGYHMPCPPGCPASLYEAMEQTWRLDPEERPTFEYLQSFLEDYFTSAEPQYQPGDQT

[13] = biological target: Tyrosine-protein kinase HCK (Homo sapiens) (UniProt P08631); test: activity of Hck(h) at 1.0 µM in the Eurofins Kinase panel
Sequence of Tyrosine-protein kinase HCK (Homo sapiens) (P08631 2-526 limits assumed): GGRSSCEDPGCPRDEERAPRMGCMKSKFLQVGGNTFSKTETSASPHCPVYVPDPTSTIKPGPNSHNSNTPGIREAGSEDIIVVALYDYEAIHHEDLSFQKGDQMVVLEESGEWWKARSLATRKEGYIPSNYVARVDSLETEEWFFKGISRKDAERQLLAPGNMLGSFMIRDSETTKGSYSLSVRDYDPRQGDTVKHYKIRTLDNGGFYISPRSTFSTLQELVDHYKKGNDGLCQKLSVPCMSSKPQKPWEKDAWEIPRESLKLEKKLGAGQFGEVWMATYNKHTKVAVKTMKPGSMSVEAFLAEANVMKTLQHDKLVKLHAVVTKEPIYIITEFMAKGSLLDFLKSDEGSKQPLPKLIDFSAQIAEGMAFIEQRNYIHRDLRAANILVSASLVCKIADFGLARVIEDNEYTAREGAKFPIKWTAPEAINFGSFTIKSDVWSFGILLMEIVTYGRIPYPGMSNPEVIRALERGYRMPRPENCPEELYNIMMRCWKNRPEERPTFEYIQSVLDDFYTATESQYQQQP

[14] = biological target: Inhibitor of nuclear factor kappa-B kinase subunit beta (Homo sapiens) (UniProt O14920); test: activity of IKKbeta(h) at 1.0 µM in the Eurofins Kinase panel
[15] = biological target: Insulin receptor (Homo sapiens) (UniProt P06213); test: activity of IR(h) at 1.0 µM in the Eurofins Kinase panel
Sequence of Insulin receptor (Homo sapiens) (P06213 28-758 limits assumed): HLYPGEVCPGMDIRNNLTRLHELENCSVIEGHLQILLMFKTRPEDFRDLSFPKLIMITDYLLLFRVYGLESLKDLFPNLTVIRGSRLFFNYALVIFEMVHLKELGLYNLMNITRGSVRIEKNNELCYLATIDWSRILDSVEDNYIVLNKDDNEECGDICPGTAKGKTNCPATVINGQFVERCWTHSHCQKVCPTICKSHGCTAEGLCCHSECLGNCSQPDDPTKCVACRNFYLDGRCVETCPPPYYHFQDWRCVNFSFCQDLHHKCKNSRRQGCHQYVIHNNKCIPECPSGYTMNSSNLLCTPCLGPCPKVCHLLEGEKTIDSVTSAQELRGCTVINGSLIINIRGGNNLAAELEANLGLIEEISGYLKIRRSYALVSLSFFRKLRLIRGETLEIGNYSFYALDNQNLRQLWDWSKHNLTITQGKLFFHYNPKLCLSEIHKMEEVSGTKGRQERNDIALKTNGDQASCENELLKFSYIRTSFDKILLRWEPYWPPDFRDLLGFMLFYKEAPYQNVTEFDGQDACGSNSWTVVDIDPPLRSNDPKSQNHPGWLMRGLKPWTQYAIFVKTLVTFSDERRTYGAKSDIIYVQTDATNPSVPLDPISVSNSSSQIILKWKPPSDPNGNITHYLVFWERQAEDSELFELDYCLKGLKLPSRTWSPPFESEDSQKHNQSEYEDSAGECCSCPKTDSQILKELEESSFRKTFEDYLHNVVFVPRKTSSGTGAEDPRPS
Sequence of Insulin receptor (Homo sapiens) (P06213 763-1382 limits assumed): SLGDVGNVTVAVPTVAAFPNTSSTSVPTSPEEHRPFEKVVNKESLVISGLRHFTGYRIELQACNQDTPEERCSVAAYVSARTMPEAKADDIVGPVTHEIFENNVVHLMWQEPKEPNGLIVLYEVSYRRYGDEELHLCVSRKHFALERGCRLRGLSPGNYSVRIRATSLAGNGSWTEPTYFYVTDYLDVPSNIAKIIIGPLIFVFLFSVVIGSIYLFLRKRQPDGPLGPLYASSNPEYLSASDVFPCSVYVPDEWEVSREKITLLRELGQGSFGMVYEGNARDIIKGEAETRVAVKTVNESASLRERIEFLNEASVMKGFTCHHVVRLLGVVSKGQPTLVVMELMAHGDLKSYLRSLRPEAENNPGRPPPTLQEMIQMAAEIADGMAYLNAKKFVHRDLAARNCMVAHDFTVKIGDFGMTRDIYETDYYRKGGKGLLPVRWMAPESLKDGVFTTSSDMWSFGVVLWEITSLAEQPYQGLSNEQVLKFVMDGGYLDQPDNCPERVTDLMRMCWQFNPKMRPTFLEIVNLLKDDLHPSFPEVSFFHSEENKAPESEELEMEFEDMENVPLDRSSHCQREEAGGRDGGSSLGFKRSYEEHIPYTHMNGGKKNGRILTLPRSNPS

[16] = biological target: Insulin receptor (Homo sapiens) (UniProt P06213); test: activity of IR(h), activated at 1.0 µM in the Eurofins Kinase panel
[17] = biological target: Mitogen-activated protein kinase 10 (Homo sapiens) (UniProt P53779); test: activity of JNK3(h) at 1.0 µM in the Eurofins Kinase panel
[18] = biological target: Vascular endothelial growth factor receptor 2 (Homo sapiens) (UniProt P35968); test: activity of KDR(h) at 1.0 µM in the Eurofins Kinase panel
[19] = biological target: Tyrosine-protein kinase Lck (Homo sapiens) (UniProt P06239); test: activity of Lck(h) at 1.0 µM in the Eurofins Kinase panel
[20] = biological target: LIM domain kinase 2 (Homo sapiens) (UniProt P53671); test: activity of LIMK2(h) at 1.0 µM in the Eurofins Kinase panel
[21] = biological target: Leucine-rich repeat serine/threonine-protein kinase 2 (Homo sapiens) (UniProt Q5S007); test: activity of LRRK2(h) at 1.0 µM in the Eurofins Kinase panel
[22] = biological target: Tyrosine-protein kinase Lyn (Homo sapiens) (UniProt P07948); test: activity of Lyn(h) at 1.0 µM in the Eurofins Kinase panel
[23] = biological target: Hepatocyte growth factor receptor (Homo sapiens) (UniProt P08581); test: activity of Met(h) at 1.0 µM in the Eurofins Kinase panel
[24] = biological target: Mitogen-activated protein kinase kinase kinase 21 (Homo sapiens) (UniProt Q5TCX8); test: activity of MLK4(h) at 1.0 µM in the Eurofins Kinase panel
[25] = biological target: [Pyruvate dehydrogenase (acetyl-transferring)] kinase isozyme 4, mitochondrial (Homo sapiens) (UniProt Q16654); test: activity of PDHK4(h) at 1.0 µM in the Eurofins Kinase panel
Sequence of [Pyruvate dehydrogenase (acetyl-transferring)] kinase isozyme 4, mitochondrial (Homo sapiens) (Q16654 whole entry, looked up, canonical isoform): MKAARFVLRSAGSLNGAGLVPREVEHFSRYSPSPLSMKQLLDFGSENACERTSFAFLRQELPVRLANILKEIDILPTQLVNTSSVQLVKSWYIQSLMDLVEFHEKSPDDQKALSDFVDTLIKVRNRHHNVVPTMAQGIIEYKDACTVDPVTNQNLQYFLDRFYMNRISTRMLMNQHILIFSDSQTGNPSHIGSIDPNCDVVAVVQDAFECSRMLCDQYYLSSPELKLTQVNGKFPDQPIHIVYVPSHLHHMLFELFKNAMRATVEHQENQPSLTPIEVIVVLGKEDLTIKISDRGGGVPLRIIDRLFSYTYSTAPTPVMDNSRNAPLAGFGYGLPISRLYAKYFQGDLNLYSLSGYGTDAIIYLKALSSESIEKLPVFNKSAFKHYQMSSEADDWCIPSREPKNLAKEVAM

[26] = biological target: Phosphatidylinositol 4,5-bisphosphate 3-kinase catalytic subunit gamma isoform (Homo sapiens) (UniProt P48736); test: activity of PI3 Kinase (p120gamma)(h) at 1.0 µM in the Eurofins Kinase panel
[27] = biological target: Serine/threonine-protein kinase pim-3 (Homo sapiens) (UniProt Q86V86); test: activity of Pim-3(h) at 1.0 µM in the Eurofins Kinase panel
[28] = biological target: RAC-alpha serine/threonine-protein kinase (Homo sapiens) (UniProt P31749); test: activity of PKBalpha(h) at 1.0 µM in the Eurofins Kinase panel
[29] = biological target: Protein kinase C epsilon type (Homo sapiens) (UniProt Q02156); test: activity of PKCepsilon(h) at 1.0 µM in the Eurofins Kinase panel
[30] = biological target: Serine/threonine-protein kinase N1 (Homo sapiens) (UniProt Q16512); test: activity of PRK1(h) at 1.0 µM in the Eurofins Kinase panel
[31] = biological target: Serine/threonine-protein kinase N2 (Homo sapiens) (UniProt Q16513); test: activity of PRK2(h) at 1.0 µM in the Eurofins Kinase panel
[32] = biological target: Serine/threonine-protein kinase PRP4 homolog (Homo sapiens) (UniProt Q13523); test: activity of PRP4(h) at 1.0 µM in the Eurofins Kinase panel
Sequence of Serine/threonine-protein kinase PRP4 homolog (Homo sapiens) (Q13523 whole entry): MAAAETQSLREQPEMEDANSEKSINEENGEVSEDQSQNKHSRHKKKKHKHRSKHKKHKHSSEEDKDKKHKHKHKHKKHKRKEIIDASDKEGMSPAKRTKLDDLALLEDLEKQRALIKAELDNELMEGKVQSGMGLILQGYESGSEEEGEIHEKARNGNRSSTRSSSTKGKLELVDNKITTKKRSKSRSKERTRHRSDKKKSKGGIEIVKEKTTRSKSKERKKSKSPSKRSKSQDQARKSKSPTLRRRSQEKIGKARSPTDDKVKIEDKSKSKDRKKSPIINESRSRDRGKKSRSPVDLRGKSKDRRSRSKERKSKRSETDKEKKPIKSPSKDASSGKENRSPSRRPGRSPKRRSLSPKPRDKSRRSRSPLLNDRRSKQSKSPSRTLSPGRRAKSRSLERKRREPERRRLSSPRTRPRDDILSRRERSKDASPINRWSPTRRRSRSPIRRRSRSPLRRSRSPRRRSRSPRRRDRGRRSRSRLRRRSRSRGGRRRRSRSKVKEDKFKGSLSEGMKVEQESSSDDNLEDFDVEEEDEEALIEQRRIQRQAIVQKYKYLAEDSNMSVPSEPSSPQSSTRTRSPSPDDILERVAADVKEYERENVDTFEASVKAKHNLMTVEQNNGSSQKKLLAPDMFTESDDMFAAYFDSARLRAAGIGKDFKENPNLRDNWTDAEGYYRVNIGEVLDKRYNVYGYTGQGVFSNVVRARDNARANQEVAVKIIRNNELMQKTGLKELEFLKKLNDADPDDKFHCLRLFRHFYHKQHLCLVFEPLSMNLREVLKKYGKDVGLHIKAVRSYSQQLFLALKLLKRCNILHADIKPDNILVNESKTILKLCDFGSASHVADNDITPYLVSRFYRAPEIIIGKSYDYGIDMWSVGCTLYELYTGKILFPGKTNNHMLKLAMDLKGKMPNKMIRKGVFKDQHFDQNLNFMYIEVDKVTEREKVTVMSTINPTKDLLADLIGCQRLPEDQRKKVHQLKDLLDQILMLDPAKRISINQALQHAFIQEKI

[33] = biological target: Receptor-interacting serine/threonine-protein kinase 1 (Homo sapiens) (UniProt Q13546); test: activity of RIPK1(h) at 1.0 µM in the Eurofins Kinase panel
[34] = biological target: STE20-like serine/threonine-protein kinase (Homo sapiens) (UniProt Q9H2G2); test: activity of SLK(h) at 1.0 µM in the Eurofins Kinase panel
[35] = biological target: Serine/threonine-protein kinase PLK2 (Homo sapiens) (UniProt Q9NYY3); test: activity of Snk(h) at 1.0 µM in the Eurofins Kinase panel
[36] = biological target: Mitogen-activated protein kinase kinase kinase 7 (Homo sapiens) (UniProt O43318); test: activity of TAK1(h) at 1.0 µM in the Eurofins Kinase panel
[37] = biological target: Angiopoietin-1 receptor (Homo sapiens) (UniProt Q02763); test: activity of Tie2(h) at 1.0 µM in the Eurofins Kinase panel
[38] = biological target: Testis-specific serine/threonine-protein kinase 4 (Homo sapiens) (UniProt Q6SA08); test: activity of TSSK4(h) at 1.0 µM in the Eurofins Kinase panel
[39] = biological target: Phosphorylase b kinase gamma catalytic chain, testis/liver isoform (Homo sapiens) (UniProt P15735); test: activity of PhKgamma2(h) at 1.0 µM in the Eurofins Kinase panel

activity [1]: 99%
activity [2]: 91%
activity [3]: 88%
activity [4]: 93%
activity [5]: 85%
activity [6]: 98%
activity [7]: 92%
activity [8]: 97%
activity [9]: 85%
activity [10]: 79%
activity [11]: 111%
activity [12]: 97%
activity [13]: 99%
activity [14]: 99%
activity [15]: 94%
activity [16]: 92%
activity [17]: 88%
activity [18]: 78%
activity [19]: 86%
activity [20]: 72%
activity [21]: 100%
activity [22]: 80%
activity [23]: 90%
activity [24]: 112%
activity [25]: 101%
activity [26]: 105%
activity [27]: 103%
activity [28]: 87%
activity [29]: 97%
activity [30]: 91%
activity [31]: 92%
activity [32]: 100%
activity [33]: 84%
activity [34]: 109%
activity [35]: 94%
activity [36]: 91%
activity [37]: 99%
activity [38]: 117%
activity [39]: 98%
Structure (SMILES): Cc1cc2c(-c3ccc(NC(=O)[C@H](N)CC(C)(C)C)cc3C)ccnc2[nH]1

— ChEMBL document CHEMBL5723584 (2023)
